These results are taken from ChEMBL document CHEMBL1287799, “Design, synthesis, and structure-activity relationship study of bicyclic piperazine analogs of indole-3-carboxamides as novel cannabinoid CB1 receptor agonists” (Bioorg Med Chem Lett, 2010).

For data set [1], the target named is T1, Cannabinoid receptor 1 (Homo sapiens, UniProt P21554). Description: biochemical.
For another data set, the target named is Cannabinoid receptor 2 (Homo sapiens, UniProt P34972). Description: Displacement of [3H]-CP55940 from human CB2 expressed in insect Sf9 membranes. The class given is cell membranes.
Sequence of Cannabinoid receptor 2 (P34972 whole entry): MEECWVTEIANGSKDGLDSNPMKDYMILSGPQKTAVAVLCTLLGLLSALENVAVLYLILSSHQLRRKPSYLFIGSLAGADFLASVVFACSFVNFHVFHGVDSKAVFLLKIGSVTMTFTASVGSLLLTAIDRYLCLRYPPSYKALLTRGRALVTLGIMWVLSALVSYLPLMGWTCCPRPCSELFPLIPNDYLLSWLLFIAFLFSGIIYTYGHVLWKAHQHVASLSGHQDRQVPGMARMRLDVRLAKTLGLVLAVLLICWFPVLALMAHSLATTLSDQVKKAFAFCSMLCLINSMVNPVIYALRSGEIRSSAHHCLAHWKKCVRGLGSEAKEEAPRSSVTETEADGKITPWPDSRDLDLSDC
Data set [2] deals with Mus musculus. Description: Antinociceptive effect in iv dosed mouse assessed as increase in tail-flick latency period by tail flick test. Type of data set: functional.
Data set [3] in a line: Half life in human liver microsomes. Type of data set: ADME, Microsome. In general terms: Liver microsomes are vesicles of endoplasmic reticulum, rich in cytochrome P450 enzymes.
The nature of data set [4]: Half life in mouse liver microsomes. Type of data set: ADME, Microsome.
The target of data set [5] is T1, Cannabinoid receptor 1.
Description: Agonist activity at human CB1 receptor transfected in CHO cells after 5 hrs by luciferase reporter gene assay
The subject of data set [6] is Mus musculus. The experiment in a line: Antinociceptive activity against formalin-induced inflammatory pain in iv dosed mouse assessed inhibition of paw flinching behavior in both phases of formalin response in presence of CB1 antagonist SR-141716A pretreated before compound challenge. The class given is functional, organism-based.
For data set [7], the system named is Mus musculus. The experiment in a line: Antinociceptive activity against formalin-induced inflammatory pain in iv dosed mouse assessed inhibition of paw biting behavior in both phases of formalin response. The class given is functional, organism-based.
Data set [8] concerns Mus musculus. The experiment in a line: Antinociceptive activity against formalin-induced inflammatory pain in iv dosed mouse assessed inhibition of paw lifting behavior in both phases of formalin response in presence of CB1 antagonist SR-141716A pretreated before compound challenge. The class given is functional, organism-based.
The subject of data set [9] is Mus musculus. Description: Antinociceptive activity against formalin-induced inflammatory pain in mouse assessed inhibition of paw licking behavior in both phases of formalin response at => 0.3 umol/kg, iv. Type of data set: functional, organism-based.
The subject of data set [10] is Mus musculus. The experiment in a line: Antinociceptive activity against formalin-induced inflammatory pain in iv dosed mouse assessed inhibition of paw lifting behavior in both phases of formalin response. The class given is functional, organism-based.
In data set [11] the test system is Mus musculus. Description: Antinociceptive activity against formalin-induced inflammatory pain in mouse assessed inhibition of paw lifting behavior in both phases of formalin response at => 0.3 umol/kg, iv. Type of data set: functional, organism-based.
For data set [12], the system named is Mus musculus. The experiment in a line: Antinociceptive activity against formalin-induced inflammatory pain in iv dosed mouse assessed inhibition of paw biting behavior in both phases of formalin response in presence of CB1 antagonist SR-141716A pretreated before compound challenge. The class given is functional, organism-based.
Data set [13] concerns Mus musculus. The experiment in a line: Antinociceptive activity against formalin-induced inflammatory pain in mouse assessed inhibition of paw biting behavior in both phases of formalin response => 0.3 umol/kg, iv. The class given is functional, organism-based.
In data set [14] the test system is Mus musculus. The experiment in a line: Antinociceptive activity against formalin-induced inflammatory pain in iv dosed mouse assessed inhibition of paw licking behavior in both phases of formalin response. Type of data set: functional, organism-based.
The test system of data set [15] is Mus musculus. Description: Antinociceptive activity against formalin-induced inflammatory pain in iv dosed mouse assessed inhibition of paw flinching behavior in both phases of formalin response. Type of data set: functional, organism-based.
Data set [16] relates to Mus musculus. The experiment in a line: Antinociceptive activity against formalin-induced inflammatory pain in iv dosed mouse assessed inhibition of paw licking behavior in both phases of formalin response in presence of CB1 antagonist SR-141716A pretreated before compound challenge. The class given is functional, organism-based.
Data set [17] concerns Mus musculus. Description: Antinociceptive activity against formalin-induced inflammatory pain in mouse assessed inhibition of paw flinching behavior in both phases of formalin response at => 0.3 umol/kg, iv. The class given is functional, organism-based.
For a further data set, the target named is Cytochrome P450 2D6 (Homo sapiens, UniProt P10635). The experiment in a line: Inhibition of human CYP2D6. Type of data set: ADME.
Sequence of Cytochrome P450 2D6 (P10635 whole entry): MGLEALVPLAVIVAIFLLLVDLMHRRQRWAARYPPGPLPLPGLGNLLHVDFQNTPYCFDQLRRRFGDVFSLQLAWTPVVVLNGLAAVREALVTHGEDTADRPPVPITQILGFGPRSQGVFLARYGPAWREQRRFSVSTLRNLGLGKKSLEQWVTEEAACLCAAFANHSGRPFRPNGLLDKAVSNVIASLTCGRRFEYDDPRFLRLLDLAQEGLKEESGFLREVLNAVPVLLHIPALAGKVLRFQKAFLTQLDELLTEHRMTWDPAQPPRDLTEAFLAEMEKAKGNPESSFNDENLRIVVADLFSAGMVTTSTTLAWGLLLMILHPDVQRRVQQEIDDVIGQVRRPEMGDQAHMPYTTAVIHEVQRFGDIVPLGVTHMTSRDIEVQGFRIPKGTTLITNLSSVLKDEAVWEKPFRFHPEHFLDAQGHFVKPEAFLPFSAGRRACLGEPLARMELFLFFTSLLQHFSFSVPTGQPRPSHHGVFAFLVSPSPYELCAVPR
The nature of data set [18]: Genotoxicity in Salmonella Typhimurium up to 100 uM by Ames test. Type of data set: toxicity. The settings on record: salmonella enterica subsp. enterica serovar typhimurium.
The target of another data set is Cytochrome P450 3A4 (Homo sapiens, UniProt P08684). The experiment in a line: Inhibition of human CYP3A4. The class given is ADME.
Sequence of Cytochrome P450 3A4 (P08684 whole entry): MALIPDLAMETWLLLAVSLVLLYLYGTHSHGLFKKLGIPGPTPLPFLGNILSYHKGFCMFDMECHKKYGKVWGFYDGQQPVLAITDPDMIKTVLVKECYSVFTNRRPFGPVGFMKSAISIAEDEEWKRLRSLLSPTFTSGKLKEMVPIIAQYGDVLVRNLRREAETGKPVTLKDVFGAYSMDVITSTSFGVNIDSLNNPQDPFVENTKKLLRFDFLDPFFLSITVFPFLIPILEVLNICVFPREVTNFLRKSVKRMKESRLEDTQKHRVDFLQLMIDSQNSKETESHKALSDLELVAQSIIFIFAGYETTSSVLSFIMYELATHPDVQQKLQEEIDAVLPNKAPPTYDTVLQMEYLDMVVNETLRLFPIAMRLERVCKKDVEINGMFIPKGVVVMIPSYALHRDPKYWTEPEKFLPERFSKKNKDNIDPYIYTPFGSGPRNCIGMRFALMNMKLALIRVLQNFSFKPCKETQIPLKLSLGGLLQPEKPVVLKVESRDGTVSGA
For another data set, the target named is Cytochrome P450 2C9 (Homo sapiens, UniProt P11712). Description: Inhibition of human CYP2C9. The class given is ADME.
Sequence of Cytochrome P450 2C9 (P11712 whole entry): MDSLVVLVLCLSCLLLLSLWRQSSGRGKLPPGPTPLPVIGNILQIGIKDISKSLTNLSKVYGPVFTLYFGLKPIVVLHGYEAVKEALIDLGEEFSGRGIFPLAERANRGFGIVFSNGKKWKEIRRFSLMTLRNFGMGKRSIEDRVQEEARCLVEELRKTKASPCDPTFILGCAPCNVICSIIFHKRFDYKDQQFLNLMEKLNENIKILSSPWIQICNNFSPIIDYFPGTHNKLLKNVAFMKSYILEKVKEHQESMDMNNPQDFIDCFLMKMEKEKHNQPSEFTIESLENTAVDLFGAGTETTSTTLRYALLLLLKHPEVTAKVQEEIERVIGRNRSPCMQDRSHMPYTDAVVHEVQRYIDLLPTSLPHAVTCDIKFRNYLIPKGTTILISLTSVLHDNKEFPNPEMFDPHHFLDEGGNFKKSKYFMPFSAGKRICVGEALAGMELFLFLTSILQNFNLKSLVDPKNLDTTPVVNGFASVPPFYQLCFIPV

The source made the active and inactive calls. The rule behind the calls is not given here.

T1 sequence (P21554 whole entry): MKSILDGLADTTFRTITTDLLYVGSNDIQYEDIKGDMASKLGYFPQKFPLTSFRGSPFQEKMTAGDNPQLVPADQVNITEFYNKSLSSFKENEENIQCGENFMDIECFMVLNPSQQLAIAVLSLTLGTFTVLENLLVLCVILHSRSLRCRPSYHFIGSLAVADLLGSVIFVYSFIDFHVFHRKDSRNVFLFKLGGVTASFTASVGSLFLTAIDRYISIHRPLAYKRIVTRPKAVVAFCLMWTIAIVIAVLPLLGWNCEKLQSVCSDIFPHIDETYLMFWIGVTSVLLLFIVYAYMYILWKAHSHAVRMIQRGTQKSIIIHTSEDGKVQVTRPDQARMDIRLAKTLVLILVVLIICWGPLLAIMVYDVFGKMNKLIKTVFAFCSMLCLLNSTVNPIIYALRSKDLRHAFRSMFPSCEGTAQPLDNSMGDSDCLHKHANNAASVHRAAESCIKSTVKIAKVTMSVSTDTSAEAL

Usually Ki stands for a measure of affinity in units of concentration, obtained from inhibition or displacement. Read a high Ki as lower affinity. What is called ED50 is the dose that gives a 50% effect, or the effect in half of the subjects. As to `O=C(c1cn2c3c(cccc13)OC[C@H]2C1CCCCC1)N1CCN2CCCC[C@H]2C1`, the Ki is 1.58 nM on Cannabinoid receptor 1 [1] and 0.398 nM on Cannabinoid receptor 2. Besides, the ED50 in the data set on Mus musculus [2] came to 0.00042 µmol/kg.
A word on the half-life: it is the time in which the quantity being followed falls by half. A low value points to fast loss. In general, EC50 refers to the concentration at which the effect is half-maximal. Higher therefore signals a less potent agent. Turning to `COc1cccc2c(C(=O)N3C[C@@H]4CCCN4C[C@@H]3C)cn(CC3CCCCC3)c12`, the half-life in [3] and in data set [4] was less than 5 min in each case. The EC50 on Cannabinoid receptor 1 [5] is 100 nM.
As for `COc1cccc2c(C(=O)N3CCN4CCCC[C@H]4C3)cn(CC3CCCCC3)c12` [listing 1 of 2 here], the result in the data set with Mus musculus [6], with Mus musculus [8], in the data set with Mus musculus [12] and in the data set on Mus musculus [16] was inactive. Besides, the Activity entry in the data set with Mus musculus [7], in the data set on Mus musculus [10], in the data set on Mus musculus [14] and with Mus musculus [15] was “Dose-dependent effect” throughout. Moreover, the result in the data set with Mus musculus [9], in the data set with Mus musculus [11], in the data set with Mus musculus [13] and with Mus musculus [17] was Active.
For the compound `COc1cccc2c(C(=O)N3C[C@H]4CCCN4C[C@H]3CC(C)C)cn(CC3CCCCC3)c12`, the half-life in data set [3] and in data set [4] was less than 5 min in each case. This compound also had an EC50 on Cannabinoid receptor 1 [5] of 316 nM.
As to `COc1cccc2c(C(=O)N3CCN4CCCC[C@@H]4C3)cn(CC3CCCCC3)c12`, the half-life in data set [3] and in data set [4] was less than 5 min throughout. This compound also gave an EC50 on Cannabinoid receptor 1 [5] of 100 nM.
As to `Cc1c(C(=O)c2cccc3ccccc23)c2cccc3c2n1[C@H](CN1CCOCC1)CO3` [WIN-552122], the ED50 with Mus musculus [2] came out at 0.0017 µmol/kg.
As for `COc1cccc2c(C(=O)N3CCN4CCC[C@@H]4C3)cn(CC3CCCCC3)c12`, the half-life in data set [3] and in [4] was less than 5 min in each case. Also, the EC50 at Cannabinoid receptor 1 [5] was 63.1 nM.
As for `COc1cccc2c(C(=O)N3CCN4CCCC[C@H]4C3)cn(CC3CCCCC3)c12.Cl`, the half-life in [3] and in data set [4] was less than 5 min throughout.
For the compound `COc1cccc2c(C(=O)N3C[C@@H]4CCCN4CC3(C)C)cn(CC3CCCCC3)c12`, the half-life in data set [3] and in data set [4] was less than 5 min each time. At Cannabinoid receptor 1 [5], this compound gave an EC50 of 100 nM.
As for `CCCCCCC(C)(C)c1ccc([C@@H]2C[C@H](O)CC[C@H]2CCCO)c(O)c1` [CP-55940], the ED50 with Mus musculus [2] is 0.00011 µmol/kg.
Compound `O=C(c1cn2c3c(cccc13)OC[C@@H]2C1CCCCC1)N1CCN2CCCC[C@H]2C1` showed an EC50 at Cannabinoid receptor 1 [5] of 2000 nM. In other words, the single-digit micromolar range.
Consider `COc1cccc2c(C(=O)N3C[C@H]4CCCN4C[C@@H]3C)cn(CC3CCCCC3)c12.Cl`, for which the half-life in data set [3] and in data set [4] was less than 5 min throughout. Also, the EC50 on Cannabinoid receptor 1 [5] is 501 nM.
As to `COc1cccc2c(C(=O)N3C[C@H]4CCCN4C[C@H]3C)cn(CC3CCCCC3)c12.Cl`, the half-life in [3] and in data set [4] was less than 5 min each time. This compound showed an EC50 on Cannabinoid receptor 1 [5] of 63.1 nM.
Broadly, the IC50 is the midpoint of a concentration-inhibition curve. As for `COc1cccc2c(C(=O)N3CCN4CCCC[C@H]4C3)cn(CC3CCCCC3)c12` [listing 2 of 2 here], the IC50 against Cytochrome P450 2D6 came to 13000 nM; on Cytochrome P450 3A4, 6000 nM; against Cytochrome P450 2C9, 12000 nM. Also, the Activity result in [18] is “Non-toxic”. For the same compound, the Ki was 2.51 nM at Cannabinoid receptor 1 [1] and 3.98 nM on Cannabinoid receptor 2. Moreover, the ED50 in the data set with Mus musculus [2] amounted to 0.00058 µmol/kg.
Turning to `COc1cccc2c(C(=O)N3C[C@@H]4CCCN4C[C@H]3C)cn(CC3CCCCC3)c12.Cl`, the half-life in data set [3] and in data set [4] was less than 5 min throughout. The compound further showed an EC50 on Cannabinoid receptor 1 [5] of 1000 nM.
Turning to `COc1cccc2c(C(=O)N3CCN4CCC[C@@]4(C)C3)cn(CC3CCCCC3)c12.Cl`, the half-life in data set [3] and in [4] was less than 5 min each time. Also, the EC50 at Cannabinoid receptor 1 [5] was 1260 nM.
On to `COc1cccc2c(C(=O)N3C[C@]4(C)CSCN4C[C@@H]3C)cn(CC3CCCCC3)c12.Cl`, for which the half-life in [3] and in data set [4] was less than 5 min in each case. Moreover, the EC50 at Cannabinoid receptor 1 [5] was 31.6 nM.
With `COc1cccc2c(C(=O)N3CCN4CCC[C@H]4C3)cn(CC3CCCCC3)c12.Cl`, the half-life in data set [3] and in data set [4] was less than 5 min each time. The compound further had an EC50 at Cannabinoid receptor 1 [5] of 20 nM.
For `COc1cccc2c(C(=O)N3C[C@H]4CCCN4CC3(C)C)cn(CC3CCCCC3)c12`, the half-life in [3] and in [4] was less than 5 min in each case. The compound also showed a half-maximal effective concentration (EC50) on Cannabinoid receptor 1 [5] of 631 nM.
For the compound `COc1cccc2c(C(=O)N3C[C@@H]4CCCN4C[C@@H]3CC(C)C)cn(CC3CCCCC3)c12`, the half-life in data set [3] and in [4] was less than 5 min in each case. Besides, at Cannabinoid receptor 1 [5], the EC50 is greater than 10000 nM.
